Bounds are passed on as bounds.

These results are taken from the supplement of paper PMC10627819.

Assay [1] has as its system S. aureus DSM 20231. As to the kind of experiment: Bliss interaction score (quartile over a dose matrix) (fitness difference); higher = more antagonism (negative = synergy). The method in brief: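 Growth was read as OD595 when cultures entered stationary phase, and each value was divided by the plate's robust no-drug mean and capped at 1. This normalised ratio is the fitness value, and fitness for each single drug came from the combination data. The Bliss score subtracts the expected fitness, taken as the product, from the observed fitness and is given as quartiles across technical, biological and donor/recipient replicates.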

Another assay concerns S. aureus Newman. As to the kind of experiment: fitness (endpoint OD595 vs no drug) (fraction); higher = more growth. The method in brief:
(§1)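 With the first reading as background, OD595 was measured every 30 min for 14 h in 384-well plates kept at 37 °C and inoculated at OD595 0.01. TSB, LB Lennox or CY was the medium. Fitness is the optical density at the transition into stationary phase divided by the robust mean of no-drug control wells, with a cap of 1.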

Assay [2] concerns S. aureus DSM 20231. The description is as above. The method in brief:
as §1

Another assay relates to B. subtilis 168. The assay is described as above. An outline of the steps: as §1
The mark [3] stands for this setting: first compound 0.375 µg/mL, partner 0.0156 µg/mL.
Setting [4] is: first compound 0.375 µg/mL, partner 0.0312 µg/mL.
[5] abbreviates: first compound 0.375 µg/mL, partner 0.0625 µg/mL.
Where [6] appears, read: first compound 0.75 µg/mL, partner 0.0156 µg/mL.
[7] abbreviates: first compound 0.75 µg/mL, partner 0.0312 µg/mL.
Where [8] appears, read: first compound 0.75 µg/mL, partner 0.0625 µg/mL.
Setting [9] is: first compound 1.5 µg/mL, partner 0.0156 µg/mL.
Setting [10] is: first compound 1.5 µg/mL, partner 0.0312 µg/mL.
Setting [11] is: first compound 1.5 µg/mL, partner 0.0625 µg/mL.
The mark [12] stands for this setting: first compound 0.375 µg/mL, partner 12.5 µg/mL.
[13] abbreviates: first compound 0.375 µg/mL, partner 25 µg/mL.
Setting [14] is: first compound 0.375 µg/mL, partner 50 µg/mL.
[15] abbreviates: first compound 0.75 µg/mL, partner 12.5 µg/mL.
[16] abbreviates: first compound 0.75 µg/mL, partner 25 µg/mL.
Where [17] appears, read: first compound 1.5 µg/mL, partner 12.5 µg/mL.
The mark [18] stands for this setting: first compound 1.5 µg/mL, partner 25 µg/mL.
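Wherever Bliss interaction score (quartile over a dose matrix) is given: first quartile when negative (synergy) and third quartile when positive (antagonism).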
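Wherever fitness (endpoint OD595 vs no drug) is given: OD595 on entry to stationary phase over no-drug wells; at most 1.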

Regarding `CCC[C@@H]1C[C@@H](C(=O)N[C@@H]([C@H]2O[C@H](SC)[C@H](O)[C@@H](O)[C@H]2O)[C@H](C)Cl)N(C)C1` [Clindamycin] + C[C@H]1C[C@@H]2[C@H]([C@@H](O)C[C@@]3(C)[C@H]2CC[C@]3(O)C(=O)CO)[C@@]2(C)C=CC(=O)C=C12 [Methylprednisolone], the Bliss interaction score in the assay with S. aureus DSM 20231 [1] was -0.274.

In the case of `CCC[C@@H]1C[C@@H](C(=O)N[C@@H]([C@H]2O[C@H](SC)[C@H](O)[C@@H](O)[C@H]2O)[C@H](C)Cl)N(C)C1` [Clindamycin] + Cc1c(Cl)cccc1Nc1ccccc1C(=O)O [Tolfenamic], the Bliss interaction score in the assay with S. aureus DSM 20231 [1] was -0.169.

Regarding `CCC[C@@H]1C[C@@H](C(=O)N[C@@H]([C@H]2O[C@H](SC)[C@H](O)[C@@H](O)[C@H]2O)[C@H](C)Cl)N(C)C1` [Clindamycin] + Cc1ccc(C(C)C)c(O)c1 [Thymol], the Bliss interaction score in the assay with S. aureus DSM 20231 [1] was -0.271.

Consider `CCC[C@@H]1C[C@@H](C(=O)N[C@@H]([C@H]2O[C@H](SC)[C@H](O)[C@@H](O)[C@H]2O)[C@H](C)Cl)N(C)C1` [Clindamycin] + Nc1ccc(O)c(C(=O)O)c1 [Mesalamine], for which, in the assay with S. aureus DSM 20231 [1], the Bliss interaction score was -0.165.

As for `CCC[C@@H]1C[C@@H](C(=O)N[C@@H]([C@H]2O[C@H](SC)[C@H](O)[C@@H](O)[C@H]2O)[C@H](C)Cl)N(C)C1` [Clindamycin] + O=C(O)Cc1cc(I)c(Oc2ccc(O)c(I)c2)c(I)c1 [Tiratricol], the Bliss interaction score with S. aureus DSM 20231 [1] was 0.278.

For `CCN(CC)CCOc1ccc(C(=C(Cl)c2ccccc2)c2ccccc2)cc1` [Clomiphene] + CCC(C)C1C(=O)NC(=C)C(=O)NC(C(=O)NC(CSCC(C(=O)N1)NC(=O)/C(=C/C)/NC(=O)C(C(C)CC)N)C(=O)NC2C(SCC(NC(=O)CNC(=O)C3CCCN3C2=O)C(=O)NC(CCCCN)C(=O)NC4C(SCC(NC(=O)CNC(=O)C(NC(=O)C(NC(=O)C(NC(=O)CNC4=O)C)CC(C)C)CCSC)C(=O)NC(CC(=O)N)C(=O)NC(CCSC)C(=O)NC(CCCCN)C(=O)NC5C(SCC6C(=O)NC(C(=O)NC(CSC(C(C(=O)N6)NC(=O)C(NC5=O)C)C)C(=O)NC(CO)C(=O)NC(C(C)CC)C(=O)NC(CC7=CN=CN7)C(=O)NC(C(C)C)C(=O)NC(=C)C(=O)NC(CCCCN)C(=O)O)CC8=CN=CN8)C)C)C)CC(C)C [Nisin], the Bliss interaction score in the assay with S. aureus DSM 20231 [1] (main component drawn) is -0.384.

As to `CCN(CC)CCOc1ccc(C(=C(Cl)c2ccccc2)c2ccccc2)cc1` [Clomiphene] + CN[C@@H]1[C@H](O[C@H]2[C@H](O[C@H]3[C@H](O)[C@@H](O)[C@H](N=C(N)N)[C@@H](O)[C@@H]3N=C(N)N)O[C@@H](C)[C@]2(O)C=O)O[C@@H](CO)[C@H](O)[C@H]1O [Streptomycin], the Bliss interaction score in the assay on S. aureus DSM 20231 [1] is 0.238.

On to `CCN(CC)CCOc1ccc(C(=C(Cl)c2ccccc2)c2ccccc2)cc1` [Clomiphene] + COc1cc(Cc2cnc(N)nc2N)cc(OC)c1OC [Trimethoprim], for which, in the assay on S. aureus DSM 20231 [1], the Bliss interaction score was found to be 0.216.

For the compound `CCN(CC)CCOc1ccc(C(=C(Cl)c2ccccc2)c2ccccc2)cc1` [Clomiphene] + Cn1nnc(-c2ccc(-c3ccc(N4C[C@H](CO)OC4=O)cc3F)cn2)n1 [Tedizolid], the Bliss interaction score in the assay on S. aureus DSM 20231 [1] stood at 0.263.

Turning to `CCN(CC)CCOc1ccc(C(=C(Cl)c2ccccc2)c2ccccc2)cc1` [Clomiphene] + N[C@@H]1CONC1=O [CycloserineD], the Bliss interaction score in the assay on S. aureus DSM 20231 [1] is -0.175.

As to `CCN(CC)CCOc1ccc(C(=C(Cl)c2ccccc2)c2ccccc2)cc1` [Clomiphene] + O=C(O[C@@H]1Cc2c(O)cc(O)cc2O[C@@H]1c1cc(O)c(O)c(O)c1)c1cc(O)c(O)c(O)c1 [EGCG], in the assay with S. aureus DSM 20231 [1], the Bliss interaction score was found to be 0.241.

Regarding `N[C@@H]1CONC1=O` [Cycloserine D] + Cc1onc(-c2ccccc2)c1C(=O)N[C@@H]1C(=O)N2[C@@H]1SC(C)(C)[C@@H]2C(=O)O [Oxacillin], the fitness was 0.819 in the assay with S. aureus Newman (setting [3]); 0.716 in the assay on S. aureus Newman (setting [4]); 0.611 with S. aureus Newman (setting [5]); 0.779 in the assay on S. aureus Newman (setting [6]); 0.663 in the assay with S. aureus Newman (setting [7]); 0.611 with S. aureus Newman (setting [8]). Moreover, the fitness with S. aureus Newman (setting [9]) was determined as 0.771; in the assay with S. aureus Newman (setting [10]) it was 0.642; in the assay with S. aureus Newman (setting [11]), 0.579; in the assay on S. aureus DSM 20231 [2] (setting [3]), 0.878; in the assay with S. aureus DSM 20231 [2] (setting [4]), 0.67; in the assay on S. aureus DSM 20231 [2] (setting [5]), 0.506. Moreover, the fitness with S. aureus DSM 20231 [2] (setting [6]) stood at 0.906; with S. aureus DSM 20231 [2] (setting [7]), 0.712; in the assay on S. aureus DSM 20231 [2] (setting [8]), 0.499; with S. aureus DSM 20231 [2] (setting [9]) it was 0.931; with S. aureus DSM 20231 [2] (setting [10]) it was 0.656; with S. aureus DSM 20231 [2] (setting [11]) it was 0.494. Also, the fitness in the assay on B. subtilis 168 (first compound 0.125 µg/mL, partner 0.002 µg/mL) is 0.973; with B. subtilis 168 (first compound 0.125 µg/mL, partner 0.004 µg/mL), 0.966; in the assay on B. subtilis 168 (first compound 0.125 µg/mL, partner 0.0078 µg/mL, one replicate) it was 0.99; in the assay on B. subtilis 168 (first compound 0.125 µg/mL, partner 0.008 µg/mL) it was 0.936; with B. subtilis 168 (first compound 0.125 µg/mL, partner 0.0155 µg/mL, one replicate) it was 0.909; in the assay on B. subtilis 168 (first compound 0.125 µg/mL, partner 0.031 µg/mL, one replicate), 0.873. For the same compound, the fitness came to 0.526 in the assay with B. subtilis 168 (first compound 0.125 µg/mL, partner 0.075 µg/mL, one replicate); 0.0465 in the assay with B. subtilis 168 (first compound 0.125 µg/mL, partner 0.15 µg/mL, one replicate); 0.0536 in the assay on B. subtilis 168 (first compound 0.125 µg/mL, partner 0.3 µg/mL, one replicate); 0.926 in the assay on B. subtilis 168 (first compound 0.25 µg/mL, partner 0.002 µg/mL); 0.887 in the assay with B. subtilis 168 (first compound 0.25 µg/mL, partner 0.004 µg/mL); 0.937 in the assay on B. subtilis 168 (first compound 0.25 µg/mL, partner 0.0078 µg/mL, one replicate). Besides, the fitness turned out to be 0.892 with B. subtilis 168 (first compound 0.25 µg/mL, partner 0.008 µg/mL); 0.966 in the assay on B. subtilis 168 (first compound 0.25 µg/mL, partner 0.0155 µg/mL, one replicate); 0.88 with B. subtilis 168 (first compound 0.25 µg/mL, partner 0.031 µg/mL, one replicate); 0.596 in the assay with B. subtilis 168 (first compound 0.25 µg/mL, partner 0.075 µg/mL, one replicate); 0.0158 with B. subtilis 168 (first compound 0.25 µg/mL, partner 0.15 µg/mL, one replicate); 0.0367 with B. subtilis 168 (first compound 0.25 µg/mL, partner 0.3 µg/mL, one replicate). Moreover, the fitness with B. subtilis 168 (first compound 0.5 µg/mL, partner 0.002 µg/mL) was 0.906; with B. subtilis 168 (first compound 0.5 µg/mL, partner 0.004 µg/mL), 0.9; in the assay on B. subtilis 168 (first compound 0.5 µg/mL, partner 0.0078 µg/mL, one replicate), 0.973; with B. subtilis 168 (first compound 0.5 µg/mL, partner 0.008 µg/mL) it was 0.907; with B. subtilis 168 (first compound 0.5 µg/mL, partner 0.0155 µg/mL, one replicate), at least 1; with B. subtilis 168 (first compound 0.5 µg/mL, partner 0.031 µg/mL, one replicate) it was 0.973. The fitness in the assay on B. subtilis 168 (first compound 0.5 µg/mL, partner 0.075 µg/mL, one replicate) was determined as 0.459; in the assay with B. subtilis 168 (first compound 0.5 µg/mL, partner 0.15 µg/mL, one replicate), 0.0287; in the assay with B. subtilis 168 (first compound 0.5 µg/mL, partner 0.3 µg/mL, one replicate) it was 0.0208.

As for `N[C@@H]1CONC1=O` [Cycloserine D] + O=C(O[C@@H]1Cc2c(O)cc(O)cc2O[C@@H]1c1cc(O)c(O)c(O)c1)c1cc(O)c(O)c(O)c1 [EGCG], the fitness in the assay with S. aureus Newman (setting [12]) turned out to be 0.77; in the assay with S. aureus Newman (setting [13]) it was 0.765; in the assay on S. aureus Newman (setting [14]), 0.691; with S. aureus Newman (setting [15]), 0.805; in the assay on S. aureus Newman (setting [16]) it was 0.821; with S. aureus Newman (first compound 0.75 µg/mL, partner 50 µg/mL) it was 0.697. The fitness in the assay on S. aureus Newman (setting [17]) turned out to be 0.851; with S. aureus Newman (setting [18]) it was 0.779; in the assay on S. aureus Newman (first compound 1.5 µg/mL, partner 50 µg/mL), 0.706; in the assay on S. aureus DSM 20231 [2] (setting [12]), 0.785; in the assay on S. aureus DSM 20231 [2] (setting [13]), 0.784; in the assay with S. aureus DSM 20231 [2] (setting [14]) it was 0.776. Also, the fitness in the assay on S. aureus DSM 20231 [2] (setting [15]) is 0.73; in the assay with S. aureus DSM 20231 [2] (setting [16]) it was 0.772; in the assay with S. aureus DSM 20231 [2] (setting [17]), 0.798; with S. aureus DSM 20231 [2] (setting [18]) it was 0.663; in the assay with B. subtilis 168 (first compound 0.125 µg/mL, partner 6.25 µg/mL) it was 0.934; with B. subtilis 168 (first compound 0.125 µg/mL, partner 12.5 µg/mL), 0.567. The fitness in the assay on B. subtilis 168 (first compound 0.25 µg/mL, partner 6.25 µg/mL) was found to be 0.898; in the assay with B. subtilis 168 (first compound 0.25 µg/mL, partner 25 µg/mL) it was 0.289; with B. subtilis 168 (first compound 0.5 µg/mL, partner 6.25 µg/mL) it was 0.938; in the assay with B. subtilis 168 (first compound 0.5 µg/mL, partner 12.5 µg/mL), 0.443.

Take `N[C@@H]1CONC1=O` [CycloserineD] + Cc1c(Cl)cccc1Nc1ccccc1C(=O)O [Tolfenamic]: the Bliss interaction score with S. aureus DSM 20231 [1] is -0.218.

Regarding `N[C@@H]1CONC1=O` [CycloserineD] + O=C(O)c1cc(-c2ccc(F)cc2F)ccc1O [Diflunisal], the Bliss interaction score in the assay on S. aureus DSM 20231 [1] is -0.151.
